From ChEMBL document CHEMBL6092194, “Development of membrane-targeting chalcone derivatives as antibacterial agents against multidrug-resistant bacteria” (Eur J Med Chem, 2024) come the findings set out here.

Activity calls are given as the source filed them. The rule behind the calls is not given here.

The test system of assay [1] is Staphylococcus aureus. The assay can be described thus: Bactericidal activity against Staphylococcus aureus ATCC43300 in presence of 50% blood. The class given is functional.
In assay [2] the test system is Staphylococcus aureus. The assay can be described thus: Antibacterial activity against Staphylococcus aureus ATCC43300 infected in sepsis mouse model assessed as log reduction in bacterial load in liver at 10 mg/kg pre-infected with bacteria for 1 hrs followed by compound administration at 12 hrs interval for 2 days relative to control. The class given is functional. Conditions: time 2 day.

Assay [3] deals with Cell membrane. The assay can be described thus: Induction of inner membrane permeabilization in Staphylococcus aureus ATCC43300 assessed as increase in fluorescence intensity incubated for 20 mins by PI uptake assay. The class given is subcellular. The note with it: dose 0.5-8 µg/ml.
Assay [4] deals with Cell membrane. Nature of the assay: Disruption of cell membrane in Staphylococcus aureus ATCC43300 assessed as appearance of red fluorescence by PI staining based fluorescence microscopic analysis.
Another assay concerns Escherichia coli. The assay can be described thus: Induction of morphological changes in Escherichia coli ATCC25922 assessed as disruption of cell membrane by scanning electron microscopic analysis. Type of assay: functional, organism-based.
For assay [5], the system named is Cell membrane. The assay can be described thus: Disruption of cell membrane in Staphylococcus aureus ATCC43300 assessed as increase in protein leakage. The class given is subcellular. Conditions: dose 1-8 µg/ml.
Assay [6] relates to Staphylococcus aureus. Nature of the assay: Antibacterial activity against Staphylococcus aureus ATCC43300 infected in sepsis mouse model assessed as log reduction in bacterial load in spleen at 5 mg/kg pre-infected with bacteria for 1 hrs followed by compound administration at 12 hrs interval for 2 days relative to control. Type of assay: functional. The note with it: time 2 day.

The test system of a further assay is Enterococcus faecalis. The assay can be described thus: Antibacterial activity against vancomycin susceptible Enterococcus faecalis ATCC29212 by broth microdilution assay. Type of assay: functional. In general terms: Broth dilution looks for growth in wells or tubes with falling amounts of substance.
In assay [7] the test system is Staphylococcus aureus. Nature of the assay: Drug resistance, ratio of MIC for Staphylococcus aureus ATCC43300 measured after 20 passages to MIC for Staphylococcus aureus ATCC43300 measured after first exposure. Type of assay: functional.

As a reminder, the MIC is the lowest concentration that inhibits growth of the organism. `CCCCCCOc1cc[n+](CCCOc2ccc(/C=C/C(=O)c3ccc(OCCC[n+]4ccc(OCCCCCC)cc4)cc3)cc2)cc1.[Br-].[Br-]`: the MIC in the assay with Staphylococcus aureus [1] stood at 16 µg/mL; in the assay on Enterococcus faecalis it was 0.5 µg/mL. Also, the “log(activity)” value with Staphylococcus aureus [2] is listed as 2.13; in the assay on Staphylococcus aureus [6], 1.02. Also, the Activity result in the assay with Cell membrane [3] and in the assay on Cell membrane [5] was “Dose-dependent-effect” each time. Also, the outcome in the assay with Cell membrane [4] and in the assay on Escherichia coli was Active. Also, the Ratio in the assay on Staphylococcus aureus [7] is given as 4.
